Results published in US20050222076A1, “Composition for cell proliferation” (OTSUKA PHARMACEUTICAL CO., LTD., priority 2002, published 2005).

System: human keratinocyte
Test: In vitro cultured human keratinocyte cell proliferation promoting effect (WST-1)
Assay type: cell-based
Conditions: primary-cultured human keratinocyte, cultured two days; AMP 0-1 w/v % combined with UMP 0.000001-0.1 w/v %; versus comparative sample without uridine monophosphate disodium set as 1; FIG. 1
Method: Primary-cultured human keratinocyte (manufactured by Kurabo Industries, Ltd.) was cultured in a 10-cm petri dish, and the cultured cells were collected in the subconfluent state and then stored in a frozen state. The following experiments were conducted using those cryopreserved cells.
1. The cryopreserved cells were dissolved in HuMediaKG2 liquid culture media (manufactured by Kurabo Industries, Ltd.), the cell concentration was adjusted to […]. 50 μl of thus obtained cells-containing solution was poured into each well of a test plate to adjust the cell concentration to 2500 cells/50 μl/well.
2. […]
3. […] The test samples contained solutions at various concentrations prepared by blending uridine monophosphate disodium to adenosine monophosphate disodium solutions in which the concentration of adenosine monophosphate contained in the 300 μl of the test sample was adjusted to 0, 0.0001, 0.001, 0.01, 0.1, and 1 W/V %, so that the concentration of uridine monophosphate disodium was adjusted to 0, 0.000001 (1E-06), 0.00001 (1E-05), 0.0001, 0.001, 0.01 and 0.1 w/v % as calculated based on the concentration of the uridine monophosphate.
4. Two days after culture initiation, the proliferation of human keratinocyte cells was measured using a WST-1 reagent (manufactured by TaKaRa) based on the rise in absorbance. […]

| Structure (SMILES) | cell proliferation promoting effect of adenosine monophosphate disodium when blended with uridine monophosphate disodium (relative ratio of number of cells, ratio of cont.) |
| --- | --- |
| Nc1ncnc2c1ncn2[C@@H]1O[C@H](COP(=O)([O-])[O-])[C@@H](O)[C@H]1O.[Na+].[Na+] [adenosine monophosphate disodium] | potentiated and promoted |
| O=c1ccn([C@@H]2O[C@H](COP(=O)([O-])[O-])[C@@H](O)[C@H]2O)c(=O)[nH]1.[Na+].[Na+] [uridine monophosphate disodium] | potentiated and promoted |
